Consider 27 substances from patent US20220023386A1, “METHOD FOR THE TREATMENT OR PREVENTION OF OSTEOARTHRITIS” (Chondropeptix B.V., priority 2016, published 2022).

Holding throughout (assay): Expression of OA chondrocyte phenotype marker genes by RT-qPCR after peptide exposure
What all share (assay type): cell-based, human

Assay [1] deals with OA articular chondrocytes. Further details: key: [+] denotes a significantly increased expression of chondrogenic marker BAPX1/NKX3.2 or a decreased expression of OA chondrocyte phenotypic markers ALP, MMP13, ADAMTS5, COX2, COL10A and RUNX2 in OA articular chondrocytes, in comparison to untreated OA articular chondrocytes.; [−] denotes the absence of a significant effort or a significantly decreased expression of chondrogenic marker BAPX1/NKX3.2 or an increased expression of OA chondrocyte phenotypic markers ALP, MMP13, ADAMTS5, COX2, COL10A and RUNX2 in OA articular chondrocytes, in comparison to untreated OA articular chondrocytes. To be noted: Table 2 (FIGS. 2-8), peptide 10 nM, 24 hours, vs untreated OA articular chondrocytes. As for the experimental part:
The action of 20-mer peptides (10 nM) of SEQ ID NO: 2-15 (peptides with 1 amino acids intervals (19 amino acid overlap)) and SEQ ID NO:49 on the expression of the indicated genes was determined on a validated pool of passage 2 OA human articular chondrocytes (n=18) and compared to full-length recombinant BMP-7 (1 nM). Samples were harvested after 24 hours and analyzed for indicated genes by RT-qPCR (corrected for 28S rRNA expression and relative to control conditions (no peptide exposure)). In the graphs, numbers on the x-axis represent individual peptides according to their SEQ ID NO:, error bars represent mean±SEM, statistical differences were calculated (one-way ANOVA with bonferroni correction) to control condition. *=p<0.05 lower than control condition for COL10A1, ALP, RUNX2, COX-2, MMP13 and ADAMTS5 and higher than control condition for BAPX1/NKX3.2. Random peptide is a peptide according to SEQ ID NO: 49 with amino acid sequence […].

Assay [2] relates to OA articular chondrocytes. Further details: key: [+] denotes a significantly increased expression of chondrogenic marker BAPX1/NKX3.2 or a decreased expression of OA chondrocyte phenotypic markers ALP, MMP13, ADAMTS5, COX2, COL10A and RUNX2 in OA articular chondrocytes, in comparison to untreated OA articular chondrocytes.; [−] denotes the absence of a significant effort or a significantly decreased expression of chondrogenic marker BAPX1/NKX3.2 or an increased expression of OA chondrocyte phenotypic markers ALP, MMP13, ADAMTS5, COX2, COL10A and RUNX2 in OA articular chondrocytes, in comparison to untreated OA articular chondrocytes. The note with it: Table 2 (FIGS. 2-8), peptide 10 nM, 24 hours, vs untreated OA articular chondrocytes. The source holds these as a separate data set.

Assay [3] deals with OA articular chondrocytes. To be noted: independent of the tested concentration (1000, 100, 10 and 1 nM were tested).

With “4 (IAPEGYAAYYSEGESAFPLN; homo sapiens) [compound 4]”, in assay [1], the ADAMTS5 expression entry is recorded as “−”, the ALP expression result was “−”, the BAPX1/NKX3.2 expression result is recorded as “−” and the COL10A expression result is given as “−”. Moreover, in assay [1], the COX-2 expression entry is listed as “+” and the RUNX2 expression entry was “−”. Further, the MMP13 expression entry in assay [2] is listed as “−”.

“2 (WIIAPEGYAAYYSEGESAFP; homo sapiens) [compound 2]”: in assay [1], the ADAMTS5 expression result is listed as “−”, the ALP expression entry is “−”, the BAPX1/NKX3.2 expression result is given as “−” and the COL10A expression entry is recorded as “−”. For the same substance, in assay [1], the COX-2 expression entry is “+” and the RUNX2 expression entry was “−”. In addition, the MMP13 expression entry in assay [2] was “−”.

On to “6 (PEGYAAYYSEGESAFPLNSY; homo sapiens) [compound 6]”, for which, in assay [1], the ADAMTS5 expression result was “+”, the ALP expression entry is given as “+”, the BAPX1/NKX3.2 expression entry was “+” and the COL10A expression entry is on record as “+”. Besides, in assay [1], the COX-2 expression entry was “+” and the RUNX2 expression entry was “+”. Further, the MMP13 expression entry in assay [2] is listed as “−”.

As for “SEGESAFPLNSYMNATNHAI (homo sapiens) [SEQ ID NO: 14]”, the “suppression of the OA chondrocyte phenotype” value (shortened to “suppression”) in assay [3] was “efficiently suppressed”.

On to “YAAYYSEGESAFPLNSYMNA (homo sapiens) [SEQ ID NO: 9]”, for which the “suppression” value in assay [3] is “efficiently suppressed”.

For “YSEGESAFPLNSYMNATNHA (homo sapiens) [SEQ ID NO: 13]”, the “suppression” value in assay [3] is reported as “efficiently suppressed”.

As for “EGYAAYYSEGESAFPLNSYM (homo sapiens) [SEQ ID NO: 7]”, the “suppression” value in assay [3] is on record as “efficiently suppressed”.

With “11 (AYYSEGESAFPLNSYMNATN; homo sapiens) [compound 11]”, in assay [1], the ADAMTS5 expression result is “+”, the ALP expression result was “+”, the BAPX1/NKX3.2 expression result is recorded as “+” and the COL10A expression result was “+”. Moreover, in assay [1], the COX-2 expression entry is “+” and the RUNX2 expression entry is on record as “+”. Moreover, the MMP13 expression result in assay [2] is recorded as “+”.

Take “APEGYAAYYSEGESAFPLNS (homo sapiens) [SEQ ID NO: 5]”: the “suppression” value in assay [3] is given as “efficiently suppressed”.

Take “AYYSEGESAFPLNSYMNATN (homo sapiens) [SEQ ID NO: 11]”: in assay [3], the “suppression” value is listed as “efficiently suppressed”.

On to “13 (YSEGESAFPLNSYMNATNHA; homo sapiens) [compound 13]”, for which, in assay [1], the ADAMTS5 expression result is on record as “+”, the ALP expression result is listed as “+”, the BAPX1/NKX3.2 expression result is “+” and the COL10A expression entry is on record as “+”. In addition, in assay [1], the COX-2 expression result is “+” and the RUNX2 expression entry is listed as “+”. Moreover, the MMP13 expression entry in assay [2] is “+”.

Take “IIAPEGYAAYYSEGESAFPL (homo sapiens) [SEQ ID NO: 3]”: the “suppression” value in assay [3] was “efficiently suppressed”.

On to “5 (APEGYAAYYSEGESAFPLNS; homo sapiens) [compound 5]”, for which, in assay [1], the ADAMTS5 expression result is reported as “+”, the ALP expression result is “+”, the BAPX1/NKX3.2 expression entry is “+” and the COL10A expression entry is “+”. In assay [1], the COX-2 expression result is given as “+” and the RUNX2 expression result is “+”. Further, in assay [2], the MMP13 expression result is “−”.

With “WIIAPEGYAAYYSEGESAFP (homo sapiens) [SEQ ID NO: 2]”, in assay [3], the “suppression” value is on record as “efficiently suppressed”.

As to “10 (AAYYSEGESAFPLNSYMNAT; homo sapiens) [compound 10]”, in assay [1], the ADAMTS5 expression entry is listed as “+”, the ALP expression entry is recorded as “+”, the BAPX1/NKX3.2 expression result is “+” and the COL10A expression result was “+”. Further, in assay [1], the COX-2 expression entry is recorded as “+” and the RUNX2 expression entry was “+”. The MMP13 expression entry in assay [2] was “+”.

Take “8 (GYAAYYSEGESAFPLNSYMN; homo sapiens) [compound 8]”: in assay [1], the ADAMTS5 expression entry is given as “+”, the ALP expression result is listed as “+”, the BAPX1/NKX3.2 expression entry is given as “+” and the COL10A expression entry is reported as “+”. In addition, in assay [1], the COX-2 expression result was “+” and the RUNX2 expression result is listed as “+”. Further, in assay [2], the MMP13 expression result was “+”.

With “YYSEGESAFPLNSYMNATNH (homo sapiens) [SEQ ID NO: 12]”, the “suppression” value in assay [3] is on record as “efficiently suppressed”.

On to “12 (YYSEGESAFPLNSYMNATNH; homo sapiens) [compound 12]”, for which, in assay [1], the ADAMTS5 expression entry is on record as “+”, the ALP expression entry is given as “+”, the BAPX1/NKX3.2 expression result is given as “+” and the COL10A expression entry was “+”. Also, in assay [1], the COX-2 expression entry is recorded as “+” and the RUNX2 expression result is listed as “+”. For the same substance, in assay [2], the MMP13 expression entry is “+”.

For the substance “PEGYAAYYSEGESAFPLNSY (homo sapiens) [SEQ ID NO: 6]”, in assay [3], the “suppression” value is “efficiently suppressed”.

Consider “7 (EGYAAYYSEGESAFPLNSYM; homo sapiens) [compound 7]”, for which, in assay [1], the ADAMTS5 expression result is on record as “+”, the ALP expression result was “+”, the BAPX1/NKX3.2 expression result is given as “+” and the COL10A expression entry is “+”. Also, in assay [1], the COX-2 expression entry is recorded as “+” and the RUNX2 expression entry was “+”.

For the substance “EGESAFPLNSYMNATNHAIV (homo sapiens) [SEQ ID NO: 15]”, the “suppression” value in assay [3] is “efficiently suppressed”.

With “IAPEGYAAYYSEGESAFPLN (homo sapiens) [SEQ ID NO: 4]”, in assay [3], the “suppression” value is listed as “efficiently suppressed”.

Consider “14 (SEGESAFPLNSYMNATNHAI; homo sapiens) [compound 14]”, for which, in assay [1], the ADAMTS5 expression entry is “−”, the ALP expression entry was “−”, the BAPX1/NKX3.2 expression result was “−” and the COL10A expression entry is on record as “−”. For the same substance, in assay [1], the COX-2 expression entry was “−” and the RUNX2 expression result is reported as “+”. Further, the MMP13 expression entry in assay [2] is on record as “−”.

On to “AAYYSEGESAFPLNSYMNAT (homo sapiens) [SEQ ID NO: 10]”, for which the “suppression” value in assay [3] was “efficiently suppressed”.

Consider “3 (IIAPEGYAAYYSEGESAFPL; homo sapiens) [compound 3]”, for which, in assay [1], the ADAMTS5 expression result was “−”, the ALP expression entry is “−”, the BAPX1/NKX3.2 expression entry is on record as “−” and the COL10A expression result was “−”. In addition, in assay [1], the COX-2 expression entry was “+” and the RUNX2 expression entry was “−”. Moreover, the MMP13 expression result in assay [2] was “−”.

Consider “15 (EGESAFPLNSYMNATNHAIV; homo sapiens) [compound 15]”, for which, in assay [1], the ADAMTS5 expression result is “−”, the ALP expression result is “−”, the BAPX1/NKX3.2 expression result is “−” and the COL10A expression result was “−”. Besides, in assay [1], the COX-2 expression result was “−” and the RUNX2 expression result was “+”. In assay [2], the MMP13 expression entry is reported as “−”.

“9 (YAAYYSEGESAFPLNSYMNA; homo sapiens) [compound 9]”: in assay [1], the ADAMTS5 expression result was “+”, the ALP expression entry is recorded as “+”, the BAPX1/NKX3.2 expression entry was “+” and the COL10A expression entry is “+”. In addition, in assay [1], the COX-2 expression result was “+” and the RUNX2 expression result is listed as “+”. Moreover, in assay [2], the MMP13 expression result was “+”.
